{
  "source": "paper PMC8511391",
  "about": "“Optimization of Pichia pastoris Expression System for High-Level Production of Margatoxin” (Frontiers in Pharmacology, 2021)",
  "origin": "cited, not measured here",
  "key": {"Kv1.3": {"test_system": "Kv1.3", "settings": "2014, cited from earlier work", "experimental": "Voltage-gated potassium (Kv) channels are present in a variety of cells and tissues where they regulate multiple physiological processes, including cardiac function, neural excitability, muscle contraction, cell proliferation, cell volume control, and hormonal secretion ([Coetzee et al., 1999]; [Giangiacomo et al., 2004]). […] Previous studies report the production of recombinant MgTx (rMgTx) in E. coli and P. ... || Pharmacological activity of both versions of rMgTx was evaluated by studying their effect on the hKv1.2 and hKv1.3 ion channels. The hKv1.2 current was recorded in CHO cells, which heterologously expressed the hKv1.2 ion channel, and hKv1.3 current was recorded in the human peripheral blood lymphocytes. The stimulation of the hKv1.3 channel expression (activation of isolated mononuclear cells by PHA, see the Materials and Methods section) and recording conditions (no Ca^2+ in the pipette to elicit Ca^2+-activated K^+ channels) guaranteed that the current recorded in these cells is K^+ current ... || (+ 2 further places)"}, "Kv1.1": {"test_system": "Kv1.1", "settings": "abstract, ref not given; cited from earlier work", "description": "Margatoxin (MgTx) is a high-affinity blocker of voltage-gated potassium (Kv) channels. […] This toxin is widely used to study physiological function of Kv ion channels in various cell types, including immune cells. Isolation of native MgTx in large quantities from scorpion venom is not affordable. Chemical synthesis and recombinant production in Escherichia coli need in vitro oxidative refolding for proper disulfide bond formation, resulting in a very low yield of peptide production. The Pichia pastoris expression system offers an e ..."}, "Kv1.2": {"test_system": "Kv1.2", "settings": "2014, cited from earlier work", "experimental": "Margatoxin (MgTx) is a 39-amino-acid peptide toxin isolated from the venom of the scorpion Centruroides margaritatus. Its 3D structure consists of an α-helix and three antiparallel β-strands stabilized by three disulfide bonds. […] Previous studies report the production of recombinant MgTx (rMgTx) in E. coli and P. ... || Pharmacological activity of both versions of rMgTx was evaluated by studying their effect on the hKv1.2 and hKv1.3 ion channels. The hKv1.2 current was recorded in CHO cells, which heterologously expressed the hKv1.2 ion channel, and hKv1.3 current was recorded in the human peripheral blood lymphocytes. The stimulation of the hKv1.3 channel expression (activation of isolated mononuclear cells by PHA, see the Materials and Methods section) and recording conditions (no Ca^2+ in the pipette to elicit Ca^2+-activated K^+ channels) guaranteed that the current recorded in these cells is K^+ current ... || The kinetics of current block by UrMgTx was consistent with previously reported data for MgTx. […] The association rate of TrMgTx, which has the N-terminal His-tag, was ∼1.6-fold lower than that of UrMgTx for both hKv1.2 and hKv1.3. The reduced k on rate could be explained by non–diffusion-limited bimolecular toxin–channe ..."}, "[1]": {"settings": "ref Garcia-Calvo et al., 1993, Bartok et al."}},
  "data": [
    {"substance": "MgTx (TIINVKCTSPKQCLPPCKAQFGQSAGAKCMNGKCKCYPH; UniProt P40755 1-39, looked up)", "values": [
      {"measurement": "kinetics and reversibility of block, hKv1.3", "setting": "Kv1.3; hKv1.3, whole-cell patch-clamp, ref Bartok et al.", "result": "equilibrium block develops rapidly and is fully recoverable upon washout"},
      {"measurement": "inhibition of Kv1.3", "setting": "Kv1.3; [1]", "result": "high potency in picomolar concentrations"},
      {"measurement": "inhibition of Kv1.1", "setting": "Kv1.1", "result": "in picomolar concentrations"},
      {"measurement": "kinetics and reversibility of block, hKv1.2", "setting": "Kv1.2; hKv1.2, whole-cell patch-clamp, ref Bartok et al.", "result": "develops relatively slowly and reversibility of the block is limited"},
      {"measurement": "inhibition of Kv1.2", "setting": "Kv1.2; [1]", "result": "high potency in picomolar concentrations"}
    ]}
  ]
}
